Reference: ChEMBL document CHEMBL5252512, “Recent Progress in the Development of HIV-1 Protease Inhibitors for the Treatment of HIV/AIDS” (J Med Chem, 2016)
Blank lines part the entries; values can stand above or below the compound they belong to.

Experiments:
[1] = target: T1, Human immunodeficiency virus type 1 protease (Human immunodeficiency virus 1, UniProt Q72874); test: Binding affinity to wild-type HIV1 protease expressed in Escherichia coli BL21(DE3) assessed as inhibition constant using (2-aminobenzoyl)Thr-Ile-Nle-(p-nitro)Phe-Gln-Arg peptide as substrate preincubated for 15 mins followed by substrate addition by fluorimeter analysis
[2] = system: Human immunodeficiency virus 1; test: Antiviral activity against wild type HIV-1 IIIB infected in human MT4 cells assessed as protection against virus-induced cytotoxicity incubated for 5 days by XTT assay; type: functional, organism-based; settings: Human immunodeficiency virus 1, IIIB, MT4, 120 h
[3] = target: T1, Human immunodeficiency virus type 1 protease; test: Inhibition of recombinant HIV1 Protease using His-Lys-Ala-Arg-Val-Leu-(pNO2-Phe)-Glu-Ala-Nle-SerNH2 peptide as substrate
[4] = AUC in rat at 10 mg/kg, po; type: ADME, organism-based; design: dose 10 mg/kg, route po; settings: in vivo
[5] = Half life in rat at 1 mg/kg, iv; type: ADME, organism-based; settings: in vivo
[6] = Clearance in dog at 1 mg/kg, iv; type: ADME, organism-based, Canis lupus familiaris; settings: in vivo
[7] = Half life in dog at 1 mg/kg, iv; type: ADME, organism-based, Canis lupus familiaris; settings: in vivo
[8] = AUC in dog at 4 mg/kg, po; type: ADME, organism-based, Canis lupus familiaris; design: dose 4 mg/kg, route po; settings: in vivo
[9] = Clearance in rat at 2 mg/kg, iv; type: ADME, organism-based; settings: in vivo
[10] = target: T1, Human immunodeficiency virus type 1 protease; test: Binding affinity to HIV1 protease assessed as inhibition constant
[11] = system: Human immunodeficiency virus 1; test: Antiviral activity against HIV1 LAI infected in human MT2 cells assessed as inhibition of virus-induced cytopathic effect; type: functional, organism-based; settings: Human immunodeficiency virus 1, LAI
[12] = target: T1, Human immunodeficiency virus type 1 protease; test: Inhibition of recombinant HIV1 Protease using Abz-Thr-Ile-Nle-(p-nitro)-Phe-Gln-Arg-NH2 peptide as substrate
[13] = target: T1, Human immunodeficiency virus type 1 protease; test: Inhibition of recombinant wildtype HIV1 Protease using Abz-Thr-Ile-Nle-Phe(NO2)-Gln-Arg peptide as substrate

SMILES: CCOP(=O)(COc1ccc(C[C@H](NC(=O)O[C@H]2CO[C@H]3OCC[C@H]32)[C@H](O)CN(CC(C)C)S(=O)(=O)c2ccc(OC)cc2)cc1)OCC
Ki [1]: 0.0081 nM
EC50 [2]: 3.5 nM

SMILES: C=C(C)[C@H]1CC[C@]2(C)[C@H]3CC[C@@H]4[C@@]5(C)C[C@H](OC(C)=O)C[C@](C)(C(=O)O)[C@@H]5CC[C@@]4(C)[C@]3(C)CC[C@@H]12
IC50 [3]: 1.7 µM

SMILES: Cc1cccc(C)c1OCC(=O)N(Cc1ccccc1)C[C@@H]1CNC[C@H]1CN(CC(C)C)S(=O)(=O)c1ccccc1
IC50 [12]: 2200 nM

SMILES: C=C(C)[C@@H]1CC[C@@]2(C)[C@@H]1C1CC[C@@H]3[C@@](C)(CC(=O)O)[C@H](C(C)(C)C(=O)O)CC[C@@]3(C)[C@]1(C)C[C@@H]2O (some centres not stated)
IC50 [3]: 17.8 µM

SMILES: CC(C)(C)NC(=O)[C@@H]1C[C@@H]2CCCC[C@@H]2CN1C[C@@H](O)[C@@H](NC(=O)[C@H](CC(N)=O)NC(=O)c1ccc2ccccc2n1)c1cccs1
IC50 [13]: 5 µM

SMILES: Cc1c(O)cccc1C(=O)N[C@@H](c1cccs1)[C@H](O)CN1C[C@H]2CCCC[C@H]2C[C@H]1C(=O)NC(C)(C)C
IC50 [13]: 30 µM

More lines, now with the values ahead:

Ki [1]: 0.0133 nM
SMILES: COc1ccc(S(=O)(=O)N(CC(C)C)C[C@@H](O)[C@H](Cc2ccc(OCP(=O)(O)O)cc2)NC(=O)O[C@H]2CO[C@H]3OCC[C@H]32)cc1

AUC [4]: 1.35 µM·h
half-life [5]: 744 min
clearance [6]: 5.3 mL/min/kg
half-life [7]: 546 min
AUC [8]: 2.48 µM·h
clearance [9]: 30 mL/min/kg
SMILES: CCCN([C@H](CO)CCC[C@H](C)NC(=O)[C@@H](NC(=O)OC)C(c1ccccc1)c1ccccc1)S(=O)(=O)c1ccc(N)cc1

Ki [10]: 0.11 nM
IC50 [11]: 3.8 nM
SMILES: COc1ccc(S(=O)(=O)N(CC(C)C)C[C@@H](O)[C@H](Cc2ccccc2)NC(=O)O[C@@H]2C[C@@H]3OCO[C@@H]3C2)cc1

AUC [4]: 0.56 µM·h
half-life [5]: 203 min
clearance [6]: 4.7 mL/min/kg
half-life [7]: 312 min
AUC [8]: 3.62 µM·h
clearance [9]: 17.4 mL/min/kg
SMILES: CCCN([C@H](CO)CCC[C@@H](NC(=O)[C@@H](NC(=O)OC)C(c1ccccc1)c1ccccc1)C(F)(F)F)S(=O)(=O)c1ccc(N)cc1
